This is an account of results in PMC3606823 (Journal of biomolecular screening, 2012).

The structures appear in SMILES notation. Like-named read-outs stand apart in the source and are kept apart here.

For assay [1], the target named is T1, human DDAH1 (Homo sapiens, UniProt O94760). Kind of assay: Secondary fluorimetric CPM assay with SMTC as substrate. The class given is biochemical. The settings on record: for confirmation as DDAH inhibitor in the validation assay: known DDAH inhibitors; for time-dependent inhibition (mode of inhibition): 50 μM compound, 30 nM enzyme, fluorometric CPM assay; for IC50: inhibition of human DDAH1, CPM assay, 30 nM DDAH, 100 μM SMTC.
T1 sequence (O94760 whole entry): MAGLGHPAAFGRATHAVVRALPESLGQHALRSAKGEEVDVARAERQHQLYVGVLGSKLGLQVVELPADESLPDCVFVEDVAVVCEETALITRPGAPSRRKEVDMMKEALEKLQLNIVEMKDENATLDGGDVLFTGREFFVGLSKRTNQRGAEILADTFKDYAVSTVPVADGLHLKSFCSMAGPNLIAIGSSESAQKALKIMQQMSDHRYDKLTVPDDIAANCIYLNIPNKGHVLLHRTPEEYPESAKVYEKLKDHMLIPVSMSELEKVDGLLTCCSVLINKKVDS

Assay [2] addresses T1, human DDAH1. Kind of assay: Colorimetric L-citrulline assay with ADMA as substrate. The class given is biochemical.
For another assay, the system named is DDAH. Conditions: enzyme isolated from rat kidney homogenates; cited from earlier work.
Assay [3] deals with primary microvascular endothelial cells (HMVECs). In words: L-citrulline assay in cell lysates. The class given is cell-based. The settings on record: 1 mM L-Arginine for 24 hours vs vehicle, p<0.05.
Assay [4] has as its target T1, human DDAH1. The settings on record: cited from earlier work.
[5] abbreviates: screening with recombinant human DDAH1, assay format not given.

`O=c1c2ccccc2[se]n1-c1ccccc1` [ebselen]: the “confirmation as DDAH inhibitor in the validation assay” value at human DDAH1 [1] is on record as “confirmed”. This compound gave an IC50 at human DDAH1 [2] of 3900 nM.

Turning to `[Cl][Hg][Cl]` [mercury chloride], in the assay on DDAH, the “sensitivity of the enzyme to the compound” value is given as “sensitive”. With `C[CH2][Hg][S]c1ccccc1C(=O)[O-].[Na+]` [Thimerosal], at human DDAH1 [2] (setting [5]), the IC50 was determined as 460 nM. Turning to `CC(=O)[O][Hg][c]1ccccc1` [phenylmercuric acetate], at human DDAH1 [1], the “time-dependent inhibition (mode of inhibition)” value was “progressive inhibition” and the IC50 was under 780 nM. The IC50 on human DDAH1 [2] (setting [5]) is under 780 nM.

Turning to `O=C(O)c1cc[c]([Hg][Cl])cc1` [chloromercuribenzoate, 4-chloromercuribenzoic acid], at human DDAH1 [1], the “time-dependent inhibition (mode of inhibition)” value is “progressive inhibition” and the “confirmation as DDAH inhibitor in the validation assay” value is “confirmed”. In addition, the “sensitivity of the enzyme to the compound” value with DDAH is “sensitive”. As for `N=C(N)NCCC[C@H](N)C(=O)O` [L-Arginine], the “amount of intracellular L-citrulline” value in assay [3] is “increased the amount of intracellular L-citrulline significantly”. In the case of `CN=c1nc(-c2ccccc2)n(-c2ccccc2)s1` [SCH-202676], the IC50 on human DDAH1 [1] is 13300 nM.

On to `CSC(N)=NCCC[C@H](N)C(=O)O` [SMTC, S-methyl-L-thiocitrulline], for which the kcat at human DDAH1 [4] (SMTC as substrate at 100 μM) is recorded as ~ 1 min^−1. The Km on human DDAH1 [4] (SMTC as substrate) is 1 µM. For the compound `Cn1c(=O)c2[nH]cnc2n(C)c1=O.[CH2-]C(Cc1cccc2cc(C(=O)O)c(=O)oc12)OC.[Hg+2].[OH-]` (centres unmarked) [Cumertilin], the inhibition on human DDAH1 [2] (at 25μM, screening with recombinant human DDAH1) came to 100%. On to `CN(C)C(N)=NCCC[C@H](N)C(=O)O` [ADMA, Asymmetric Dimethylarginine], for which the Km at human DDAH1 [2] was determined as 180 µM. The kcat on human DDAH1 [2] (ADMA as substrate, 0.3 μM DDAH, 500 μM ADMA, 4 hours at 37°C) is ~ 0.7 min^−1.
